Data set [1] relates to MicroNB cells. As to the kind of experiment: Cell cycle analysis by flow cytometry, MicroNB cells. As to conditions: HBB (1 μg) for 48 hr. Type of data set: cell-based, human. The protocol: Neuroblastoma cells (5×10^5) were plated and after 24 hr, cells were incubated for 48 hr with HBB diluted in starvation medium (RPMI 5% BSA) to a concentration of 10 μg/ml. Neuroblastoma cells incubated with starvation medium containing BSA alone served as control. Cells were pelleted, washed and resuspended in 0.5 ml PBSX1, containing 0.05 ml propidium iodide (PI) (P-4170, Sigma) (50 μg/ml), and 0.05 ml Triton X-100 (Sigma-Aldrich). Flow cytometry analysis was performed using Becton Dickinson FACSort and CellQuest software (Becton Dickinson, Mountain View, Calif.).
The cells were also subjected to measurement of cellular DNA content and cell cycle analysis using flow cytometry. Incubation with human HBB elevated the amount of MicroNB and MacroNB cells in the sub GO phase, by 18% and 11%, respectively (data not shown).

For data set [2], the system named is HPEC (Human pulmonary endothelial cells). As to the kind of experiment: Viability of normal cells, HPEC. Type of data set: cell-based. As to conditions: normal lung-residing cell line, data not shown. From the text:
The influence of HBB on the viability of the normal lung-residing cell lines HPEC (Human pulmonary endothelial cells) and HLMEC (Human lung microvascular endothelial cells) and on the normal kidney cell line 293T and 293A was examined as well.

The subject of data set [3] is MicroNB cells. As to the kind of experiment: Trypan blue exclusion assay, MicroNB cells. The format is cell-based, human. As to conditions: incubation with HBB, results not shown. The protocol: (§1) Neuroblastoma cells were seeded (3×10^4 per well) in a 96-well flat-bottomed tissue culture plate. After an incubation of 24 hr, cells were washed and incubated with the relevant factors (detailed in the following sections) diluted in starvation medium (RPMI-1640 containing 5% bovine serum albumin (BSA); Biological Industries, Kibbutz Beit Haemek, Israel; Sigma-Aldrich). Cell viability under normal conditions (starvation medium containing BSA) or after incubation with the relevant factors was monitored after 72 hr using an XTT (XTT cell proliferation kit; Biological Industries) or MTS-based (CellTiter 96® AQueous One Solution Cell Proliferation Assay; Promega) viability assays according to manufacturer instructions. Cells were also counted using the trypan-blue exclusion assay to verify the results obtained by XTT and MTS-based viability assays.
The HBB-mediated inhibitory activity was dose dependent (results not shown).

For data set [4], the system named is ERK1/2 phosphorylation in MicroNB cells. As to the kind of experiment: ERK1/2 phosphorylation (western blot), MicroNB cells. Type of data set: cell-based, human. As to conditions: HBB (1 μg) for 48 hr; in reference to total ERK2; FIG. 4A. The protocol:
Lysates of neuroblastoma cells and of mouse organs were resolved on SDS-PAGE after the addition of Laemmli sample buffer, and transferred onto nitrocellulose membrane. The total amount of protein in the lanes was assessed by Ponceau staining prior to blocking of the membrane. The membrane was blocked at room temperature with 3% BSA (Sigma-Aldrich) diluted in TBS-Tween (TBST) for 1 hr. For detection of the target proteins, membranes were incubated with relevant primary antibodies (see “Antibodies”), then washed 3 times×5 min with TBSTX1 and incubated with suitable HRP-conjugated secondary antibodies (see “Antibodies”). Membranes were washed again 5 times×3 min with TBSTX1. The bands were visualized by chemiluminescence-ECL reactions and autoradiography by exposure to Fuji film. The amount of the relevant protein in the lanes was estimated by densitometry using Scion Image software (Scion, Frederick, Md., USA).
Neuroblastoma cells (5×10^6) were plated and after 24 hr the growth medium was replaced with starvation medium (RPMI 0.5% FCS) for 24 hr. […] ERK1/2 phosphorylation was calculated in reference to total ERK2 protein, p38 and TAK1 phosphorylation was calculated in reference to total p38 and TAK1, respectively, as measured by densitometry using Scion Image software (Scion). […]

The subject of data set [5] is MicroNB cells (human neuroblastoma lung micrometastatic variant, MHH-NB11). Nature of the data set: MTS-based viability assay, MicroNB cells. The format is cell-based. As to conditions: 10 μg human HBB, 72 hr, FIG. 3D.
Description: The human neuroblastoma lung micrometastatic (MicroNB) and macrometastatic (MacroNB) variants were generated using a mouse model for human neuroblastoma metastasis (Nevo et al., 2008) from the parental cell lines MHH-NB11 (Pietsch et al., 1988) and SH-SY5Y (Biedler et al., 1978) as detailed here (Edry Botzer et al., 2011), and were maintained in culture as previously described (Nevo et al., 2008). The MicroNB and MacroNB variants were previously designated DisNB and MetNB, respectively (Edry Botzer et al., 2011). Authentication of MicroNB and MacroNB cells was performed by short tandem repeat analysis of DNA using the Type-it Microsatellite PCR Kit (Qiagen, Valencia, Calif.), for the genes published by the American Type Culture Collection (ATCC) (Manassas, Va.). The parental cell line MHH-NB11 was kindly provided by Dr. T. Pietsch (Department of Neuropathology, University of Bonn Medical Center, Bonn, Germany).
as §1
Circular dichroism analysis of human hemoglobin (HB), hemoglobin subunit alpha (HBA) and subunit beta (HBB) indicated a helical structure for all three proteins (FIG. 3C). […] Neuroblastoma cells were seeded (3×10^4 per well) in a 96 well flat-bottomed tissue culture plate. After 24 hr of incubation cells were washed and incubated with human HBB dissolved in starvation medium (RPMI 5% BSA) to the indicated concentrations. Cell viability under normal conditions (starvation medium) or after incubation with human HBB was monitored after an incubation of 72 hr using an MTS-based viability assay (CellTiter 96® AQueous One Solution Cell Proliferation Assay, Promega) according to the manufacturer instructions. Data are means of three independent experiments±SD. Significance was evaluated using Student's t-test for each variant incubated with human HBB compared to incubation with control media (con).

Consider “HBB: beta subunit of human hemoglobin, 147 amino acids, SEQ ID NO:2, HPLC-purified from native human hemoglobin”, for which, in the data set on MicroNB cells [1] (FIG. 4B), the “elevation of the amount of MicroNB cells in G0-G1 phase” value was found to be 59%. For the same substance, the “elevation of the amount of MicroNB cells in the sub G0 phase” value in the data set on MicroNB cells [1] (data not shown) was determined as 18%. Besides, the “influence on the viability of normal cells” value in data set [2] was “did not influence the viability”. The “non-viable MicroNB cells following incubation” value in the data set on MicroNB cells [3] came to 16%. Moreover, in data set [4], the “ERK phosphorylation in MicroNB cells” value was “decreased”. In data set [5], the “decrease in viability of MicroNB cells” value is 52%.

These data come from US10561712B2, “Treatment of cancer and inhibition of metastasis using hemoglobin beta subunit” (UNIVERSITY OF MARYLAND, BALTIMORE, priority 2014, dated 2020).
